Reference: ChEMBL document CHEMBL4813993, “Design and synthesis of diosgenin derivatives as apoptosis inducers through mitochondria-related pathways” (Eur J Med Chem, 2021)

Experiments:
K562 = assay: Cytotoxicity against human K562 cells assessed as inhibition of cell growth incubated for 48 hrs by CCK-8 assay; assay type: functional, cell-based; settings: K562, 48 h
T-24 [1] = assay: Cytotoxicity against human T24 cells assessed as inhibition of cell growth incubated for 48 hrs by CCK-8 assay; assay type: functional, cell-based; settings: T-24, 48 h
MKN-45 [2] = assay: Cytotoxicity against human MNK45 cells assessed as inhibition of cell growth incubated for 48 hrs by CCK-8 assay; assay type: functional, cell-based; settings: MKN-45, 48 h
HepG2 = assay: Cytotoxicity against human HepG2 cells assessed as inhibition of cell growth incubated for 48 hrs by CCK-8 assay; assay type: functional, cell-based; settings: HepG2, 48 h
A549 [3] = assay: Cytotoxicity against human A549 cells assessed as inhibition of cell growth incubated for 48 hrs by CCK-8 assay; assay type: functional, cell-based; settings: A549, 48 h
MCF7 = assay: Cytotoxicity against human MCF7 cells assessed as inhibition of cell growth incubated for 48 hrs by CCK-8 assay; assay type: functional, cell-based; settings: MCF7, 48 h
T-24 [4] = assay: Potency index, ratio of diosgenin IC50 to test compound IC50 for cytotoxicity against human T24 cells assessed as inhibition of cell growth incubated for 48 hrs by CCK-8 assay; assay type: functional
MKN-45 [5] = assay: Potency index, ratio of diosgenin IC50 to test compound IC50 for cytotoxicity against human MNK45 cells assessed as inhibition of cell growth incubated for 48 hrs by CCK-8 assay; assay type: functional
A549 [6] = assay: Potency index, ratio of diosgenin IC50 to test compound IC50 for cytotoxicity against human A549 cells assessed as inhibition of cell growth incubated for 48 hrs by CCK-8 assay; assay type: functional

Row | SMILES | IC50 (K562) | IC50 (T-24 [1]) | IC50 (MKN-45 [2]) | IC50 (HepG2) | IC50 (A549 [3]) | IC50 (MCF7) | Ratio IC50 (T-24 [4]) | Ratio IC50 (MKN-45 [5]) | Ratio IC50 (A549 [6])
1 | CC(=O)O[C@H]1CC[C@@]2(C)C(=CC[C@H]3[C@@H]4C[C@@H]5O[C@H](CC[C@@H](C)COC(=O)[C@@H](N)CC(C)C)[C@@H](C)[C@@H]5[C@@]4(C)CC[C@@H]32)C1 | 11.5 µM | 5.67 µM | 12.1 µM | 12.9 µM | > 30 µM | 21.2 µM |  |  | 
2 | O=c1[nH]cc(F)c(=O)[nH]1 [FLUOROURACIL] | 20.2 µM | 12.9 µM | 21.4 µM | 18.9 µM |  | 18.6 µM |  |  | 
3 | C[C@@H]1CC[C@@]2(OC1)O[C@H]1C[C@H]3[C@@H]4CC=C5C[C@@H](OC(=O)CN)CC[C@]5(C)[C@H]4CC[C@]3(C)[C@H]1[C@@H]2C [GLYCINE DIOSGENYL ESTER] | 7.68 µM | 9.98 µM | 16.2 µM | 14.9 µM | 18 µM | 10.3 µM |  |  | 
4 | C[C@@H]1CC[C@@]2(OC1)O[C@H]1C[C@H]3[C@@H]4CC=C5C[C@@H](O)CC[C@]5(C)[C@H]4CC[C@]3(C)[C@H]1[C@@H]2C [DISOGENIN] | 30 µM | 28.9 µM | 78.3 µM | 48.4 µM | 32.9 µM | 28.5 µM |  |  | 
5 | CC(=O)O[C@H]1CC[C@@]2(C)C(=CC[C@H]3[C@@H]4C[C@@H]5O[C@H](CC[C@@H](C)COC(=O)[C@@H]6CCCN6)[C@@H](C)[C@@H]5[C@@]4(C)CC[C@@H]32)C1 | 27.7 µM | 12.2 µM | 17.3 µM | 18.5 µM | 22.3 µM | > 30 µM |  |  | 
6 | C[C@@H]1CC[C@@]2(OC1)O[C@H]1C[C@H]3[C@@H]4CC=C5C[C@@H](OC(=O)[C@@H](N)Cc6c[nH]c7ccccc67)CC[C@]5(C)[C@H]4CC[C@]3(C)[C@H]1[C@@H]2C | 8.47 µM | 7.06 µM | 5.21 µM | 17 µM | 12.9 µM | 9.6 µM | 4.1 | 15 | 
7 | CC(=O)O[C@H]1CC[C@@]2(C)C(=CC[C@H]3[C@@H]4C[C@@H]5O[C@H](CC[C@@H](C)COC(=O)[C@@H](N)C(C)C)[C@@H](C)[C@@H]5[C@@]4(C)CC[C@@H]32)C1 | 6.77 µM | 4.94 µM | 7.01 µM | 12.3 µM | 4.92 µM | 17.8 µM |  |  | 6.7
8 | CC(C)C[C@H](N)C(=O)O[C@H]1CC[C@@]2(C)C(=CC[C@H]3[C@@H]4C[C@@H]5O[C@]6(CC[C@@H](C)CO6)[C@@H](C)[C@@H]5[C@@]4(C)CC[C@@H]32)C1 | 10.5 µM | 8.83 µM | 10.4 µM | > 30 µM | > 30 µM | > 30 µM |  |  | 
9 | CC(=O)O[C@H]1CC[C@@]2(C)C(=CC[C@H]3[C@@H]4C[C@@H]5O[C@H](CC[C@@H](C)COC(=O)[C@@H](N)Cc6ccccc6)[C@@H](C)[C@@H]5[C@@]4(C)CC[C@@H]32)C1 | 15.8 µM | 8.22 µM | > 30 µM | 18.8 µM | 27.2 µM | > 30 µM |  |  | 
10 | C[C@@H]1CC[C@@]2(OC1)O[C@H]1C[C@H]3[C@@H]4CC=C5C[C@@H](OC(=O)[C@H](C)N)CC[C@]5(C)[C@H]4CC[C@]3(C)[C@H]1[C@@H]2C | 15.5 µM | 9.1 µM | 11.5 µM | > 30 µM | 18.1 µM | > 30 µM |  |  | 
11 | CC(=O)O[C@H]1CC[C@@]2(C)C(=CC[C@H]3[C@@H]4C[C@@H]5O[C@H](CC[C@@H](C)COC(=O)CN)[C@@H](C)[C@@H]5[C@@]4(C)CC[C@@H]32)C1 | 15.2 µM | 10.4 µM | 17.3 µM | > 30 µM | > 30 µM | > 30 µM |  |  | 
12 | C[C@@H]1CC[C@@]2(OC1)O[C@H]1C[C@H]3[C@@H]4CC=C5C[C@@H](OC(=O)[C@@H](N)Cc6ccccc6)CC[C@]5(C)[C@H]4CC[C@]3(C)[C@H]1[C@@H]2C | 8.59 µM | 10.6 µM | 11.4 µM | 26.1 µM | > 30 µM | 25.4 µM |  |  | 
13 | C[C@@H]1CC[C@@]2(OC1)O[C@H]1C[C@H]3[C@@H]4CC=C5C[C@@H](OC(=O)[C@@H]6CCCN6)CC[C@]5(C)[C@H]4CC[C@]3(C)[C@H]1[C@@H]2C | 7.47 µM | 9.65 µM | 5.47 µM | 16.4 µM | 20.6 µM | 11.4 µM |  |  | 
14 | CC(C)[C@H](N)C(=O)O[C@H]1CC[C@@]2(C)C(=CC[C@H]3[C@@H]4C[C@@H]5O[C@]6(CC[C@@H](C)CO6)[C@@H](C)[C@@H]5[C@@]4(C)CC[C@@H]32)C1 | 16.5 µM | 11.8 µM | 13.4 µM | 27.7 µM | 23 µM | > 30 µM |  |  | 
15 | CC(=O)O[C@H]1CC[C@@]2(C)C(=CC[C@H]3[C@@H]4C[C@@H]5O[C@H](CC[C@@H](C)COC(=O)[C@H](C)N)[C@@H](C)[C@@H]5[C@@]4(C)CC[C@@H]32)C1 | 17.5 µM | 11.4 µM | 10.7 µM | > 30 µM | 27.6 µM | > 30 µM |  |  | 
